Test results as given in patent US20230114728A1 (Venatorx Pharmaceuticals, Inc., priority 2019, published 2023).
In brackets after ≈: the same amount, converted by molar mass.

Key:
Format in all cases: cell-based
A. baumannii ATCC 19606 = test: Broth microdilution MIC in CAMHB; conditions: Acinetobacter baumannii, ATCC19606; MHB; read-out: Minimum Inhibitory Concentration, A. baumannii ATCC 19606
In short: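 Hyper-permeable or efflux-deficient strains serve to probe outer-membrane penetration. Growth inhibition is scored visually after 16-20 h at 37° C in CAMHB, starting from 2-8×10^5 CFU/mL.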

E. coli 901C = test: Broth microdilution MIC in CAMHB; conditions: Escherichia coli; E. coli 901C (hyper-permeable); MHB; read-out: Minimum Inhibitory Concentration, E. coli 901C
In short: (§1)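 Per CLSI broth microdilution, colonies were grown 3-5 h at 37° C in cation-adjusted Mueller Hinton broth, then diluted to a starting inoculum of 2-8×10^5 CFU/mL against 2-fold serial compound dilutions. Plates were incubated 16-20 h at 37° C, and MIC was read visually as the lowest concentration with no growth.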

E. coli AG100 = test: Broth microdilution MIC in CAMHB; conditions: Escherichia coli; E. coli AG100 (wild-type parent); MHB; read-out: Minimum Inhibitory Concentration, E. coli AG100
In short: as §1

E. coli D22 = test: Broth microdilution MIC in CAMHB; conditions: Escherichia coli; E. coli D22 (hyper-permeable); MHB; read-out: Minimum Inhibitory Concentration, E. coli D22
In short: as §1

[1] = test system: K. pneumoniae SI-117 producing VIM-1; test: Broth microdilution MIC in CAMHB; conditions: Klebsiella pneumoniae, read-out: Minimum Inhibitory Concentration, K. pneumoniae SI-117
In short: as §1

[2] = test system: N. gonorrhoeae ATCC 49226; test: Liquid broth MIC in Fastidious broth; conditions: Neisseria gonorrhoeae, ATCC49226; N. gonorrhoeae strain ATCC 49226; Fastidious broth; read-out: Minimum Inhibitory Concentration, N. gonorrhoeae ATCC 49226
In short: (§2)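 Colonies were swabbed from chocolate agar after 24 h growth and standardised by optical density at 600 nm. Compounds were serially diluted twofold in Fastidious broth, and bacteria added to give 5×10^5 CFU/mL. After about 24 h at 36 °C in 5% CO2, the lowest concentration allowing under 10% growth was taken as MIC.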

N. gonorrhoeae FA1090 = test: Liquid broth MIC in Fastidious broth; conditions: Neisseria gonorrhoeae; N. gonorrhoeae strain FA1090; Fastidious broth; read-out: Minimum Inhibitory Concentration, N. gonorrhoeae FA1090
In short: as §2

N. gonorrhoeae H041 = test: Liquid broth MIC in Fastidious broth; conditions: Neisseria gonorrhoeae, H041, read-out: Minimum Inhibitory Concentration, N. gonorrhoeae H041
In short: as §2

N. gonorrhoeae WHO G = test: Liquid broth MIC in Fastidious broth; conditions: Neisseria gonorrhoeae; N. gonorrhoeae strain WHO G; Fastidious broth; read-out: Minimum Inhibitory Concentration, N. gonorrhoeae WHO G
In short: as §2

N. gonorrhoeae WHO K = test: Liquid broth MIC in Fastidious broth; conditions: Neisseria gonorrhoeae, read-out: Minimum Inhibitory Concentration, N. gonorrhoeae WHO K
In short: as §2

N. gonorrhoeae WHO L = test: Liquid broth MIC in Fastidious broth; conditions: Neisseria gonorrhoeae; N. gonorrhoeae strain WHO L; Fastidious broth; read-out: Minimum Inhibitory Concentration, N. gonorrhoeae WHO L
In short: as §2

N. gonorrhoeae WHO Q = test: Liquid broth MIC in Fastidious broth; conditions: Neisseria gonorrhoeae, read-out: Minimum Inhibitory Concentration, N. gonorrhoeae WHO Q
In short: as §2

N. gonorrhoeae WHO Z = test: Liquid broth MIC in Fastidious broth; conditions: Neisseria gonorrhoeae, read-out: Minimum Inhibitory Concentration, N. gonorrhoeae WHO Z
In short: as §2

Compound	MIC (A. baumannii ATCC 19606) [µg/mL]	MIC (E. coli 901C) [µg/mL]	MIC (E. coli AG100) [µg/mL]	MIC (E. coli D22) [µg/mL]	MIC [1] [µg/mL]	MIC [2] [µg/mL]	MIC (N. gonorrhoeae FA1090) [µg/mL]	MIC (N. gonorrhoeae H041) [µg/mL]	MIC (N. gonorrhoeae WHO G) [µg/mL]	MIC (N. gonorrhoeae WHO K) [µg/mL]	MIC (N. gonorrhoeae WHO L) [µg/mL]	MIC (N. gonorrhoeae WHO Q) [µg/mL]	MIC (N. gonorrhoeae WHO Z) [µg/mL]
O=C(O)c1cccc2c1OB(O)[C@@H](NC(=O)C(NC(=O)N1CCN(CCF)C(=O)C1=O)c1c(F)cc(O)cc1F)C2 (mixture of isomers) [Example 119, (3R)-3-(2-(2,6-difluoro-4-hydroxyphenyl)-2-(4-(2-fluoroethyl)-2,3-dioxopiperazine-1-carboxamido)acetamido)-2-hydroxy-3,4-dihydro-2H-benzo[e][1,2]oxaborinine-8-carboxylic acid]	> 128	< 0.25	8 to 16 (≈ 13.8 to 27.7 µM)	0.5 to 1 (≈ 0.865 to 1.73 µM)	32 to 64 (≈ 55.3 to 111 µM)	16 to 32 (≈ 27.7 to 55.3 µM)	0.25 to 0.5 (≈ 0.432 to 0.865 µM)	> 64	1 to 2 (≈ 1.73 to 3.46 µM)	16 to 32 (≈ 27.7 to 55.3 µM)	16 to 32 (≈ 27.7 to 55.3 µM)	16 to 32 (≈ 27.7 to 55.3 µM)	4 to 8 (≈ 6.92 to 13.8 µM)
NCCN1CCN(C(=O)N[C@H](C(=O)N[C@H]2Cc3cccc(C(=O)O)c3OB2O)c2c(F)cc(O)cc2F)C(=O)C1=O (single isomer, unassigned) [Example 110]	> 128	8 to 16 (≈ 13.9 to 27.8 µM)	> 128	32 to 64 (≈ 55.6 to 111 µM)	> 128	> 64	16 to 32 (≈ 27.8 to 55.6 µM)	> 64	> 64	> 64	> 64	> 64	> 64
NCCN1CCN(C(=O)N[C@@H](C(=O)N[C@H]2Cc3cccc(C(=O)O)c3OB2O)c2c(F)cc(O)cc2F)C(=O)C1=O (single isomer, unassigned) [Example 111]	> 128	0.5 to 1 (≈ 0.869 to 1.74 µM)	8 to 16 (≈ 13.9 to 27.8 µM)	2 to 4 (≈ 3.48 to 6.95 µM)	8 to 16 (≈ 13.9 to 27.8 µM)	16 to 32 (≈ 27.8 to 55.6 µM)	1 to 2 (≈ 1.74 to 3.48 µM)	> 64	4 to 8 (≈ 6.95 to 13.9 µM)	> 64	> 64	> 64	> 64
NCCN1CCN(C(=O)N[C@@H](C(=O)N[C@H]2Cc3cccc(C(=O)O)c3OB2O)c2cccc(NS(N)(=O)=O)c2)C(=O)C1=O (single isomer, unassigned) [Example 114]	> 128	2 to 4 (≈ 3.24 to 6.48 µM)	32 to 64 (≈ 51.8 to 104 µM)	8 to 16 (≈ 13 to 25.9 µM)	32 to 64 (≈ 51.8 to 104 µM)	> 64	4 to 8 (≈ 6.48 to 13 µM)	> 64	16 to 32 (≈ 25.9 to 51.8 µM)	> 64	> 64	> 64	> 64
NC1(CN2CCN(C(=O)N[C@@H](C(=O)N[C@H]3Cc4ccc(F)c(C(=O)O)c4OB3O)c3cc(F)c(O)c(O)c3Cl)C(=O)C2=O)CC1 (single isomer, unassigned) [Example 133]						> 64	16 to 32 (≈ 24.5 to 49.1 µM)	> 64	16 to 32 (≈ 24.5 to 49.1 µM)	> 64	> 64	> 64	> 64
NC1(CN2CCN(C(=O)N[C@@H](C(=O)N[C@H]3Cc4ccc(F)c(C(=O)O)c4OB3O)c3c(F)cc(O)c(O)c3Cl)C(=O)C2=O)CC1 (single isomer, unassigned) [Example 134]						> 64	16 to 32 (≈ 24.5 to 49.1 µM)	> 64	> 64	> 64	> 64	> 64	> 64
